The text below walks through data of US10464890B2, “PGAM1 inhibitors and methods related thereto” (Emory University, priority 2011, dated 2019).

Assay [1] concerns the target T1, 6PGD (H1299 cell lysates or recombinant 6PGD) (Homo sapiens, UniProt P52209).
T1 construct: endogenous in cells; host or cells: H1299 cell lysates; part of the results with recombinant 6PGD of unstated origin
T1 sequence (P52209 1-483): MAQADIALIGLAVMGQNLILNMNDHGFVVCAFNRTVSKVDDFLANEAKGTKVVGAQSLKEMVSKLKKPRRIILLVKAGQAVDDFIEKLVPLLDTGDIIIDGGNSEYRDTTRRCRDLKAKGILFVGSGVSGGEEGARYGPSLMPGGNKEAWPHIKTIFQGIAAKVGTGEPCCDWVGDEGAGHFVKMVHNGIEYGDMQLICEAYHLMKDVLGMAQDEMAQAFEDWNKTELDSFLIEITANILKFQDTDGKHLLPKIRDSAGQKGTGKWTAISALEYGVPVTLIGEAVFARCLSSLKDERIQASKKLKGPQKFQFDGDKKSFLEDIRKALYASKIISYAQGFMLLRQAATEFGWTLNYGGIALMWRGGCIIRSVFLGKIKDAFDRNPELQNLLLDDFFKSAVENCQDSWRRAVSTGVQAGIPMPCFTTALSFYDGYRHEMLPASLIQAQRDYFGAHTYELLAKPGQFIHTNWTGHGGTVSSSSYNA
The assay can be described thus: 6PGD enzyme assay. Format: biochemical. How it is done: (§1) G6PD activity was determined by the NADPH production rate from G6PD and 6PGD, then subtracting that of 6PGD, since a product of G6PD, 6-phosphogluconolactone, is rapidly hydrolyzed to a substrate of 6PGD, 6-phosphogluconate, in cells. To obtain the combined dehydrogenase activity, substrates for both dehydrogenase enzymes were added to a cuvette. In another cuvette, substrates for the second enzyme, 6PGD, were added to obtain the activity of this enzyme. Substrate concentrations were as follows: 0.2 mM glucose 6-phosphate, 0.2 mM 6-phosphogluconate, and 0.1 mM NADP^+. 10 μg of cell lysates or 1 μg of recombinant protein were added to a cuvette containing buffer (50 mM Tris, 1 mM MgCl2, pH 8.1) and then the reaction was initiated by NADP^+. The increase of absorbance at 341 nm was measured by a DU800 spectrophotometer (Beckman).

Assay [2] addresses T2, PHGDH (PGAM1 knockdown cell lysates or recombinant PHGDH) (Homo sapiens, UniProt O43175).
T2 construct: endogenous in cells; also recombinant rPHGDH of unstated origin
T2 sequence (O43175 1-533): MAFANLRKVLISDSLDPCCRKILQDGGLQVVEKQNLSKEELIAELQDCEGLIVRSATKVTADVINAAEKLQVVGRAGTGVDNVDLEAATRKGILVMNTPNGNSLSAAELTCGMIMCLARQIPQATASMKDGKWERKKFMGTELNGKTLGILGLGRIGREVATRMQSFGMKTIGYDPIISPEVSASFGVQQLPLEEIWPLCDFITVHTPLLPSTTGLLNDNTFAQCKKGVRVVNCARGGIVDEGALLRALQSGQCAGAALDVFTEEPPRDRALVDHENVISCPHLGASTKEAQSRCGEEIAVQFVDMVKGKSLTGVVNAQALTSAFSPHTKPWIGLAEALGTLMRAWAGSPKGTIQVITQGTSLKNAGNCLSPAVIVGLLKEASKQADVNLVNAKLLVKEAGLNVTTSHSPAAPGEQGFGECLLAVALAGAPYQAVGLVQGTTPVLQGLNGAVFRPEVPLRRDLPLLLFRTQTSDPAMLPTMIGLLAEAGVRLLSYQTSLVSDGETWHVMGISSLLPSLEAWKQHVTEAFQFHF
The assay is described as follows: PHGDH enzyme assay. Format: biochemical. How it is done:
PHGDH activity was spectrophotometrically measured as described previously. PHGDH enzyme buffer containing 200 mM Tris-HCl (pH8.1), 400 mM KCl, 0.6 mM NAD, 2 mM GSH, 10 mM EDTA was mixed with cell lysates or recombinant PHGDH protein. The reaction was initiated by the addition of 3-PG to a final concentration of 10 mM and followed by measuring the increase in absorbance at 340 nm over a 10 min period.

Assay [3] concerns the target T3, 6PGD (Homo sapiens, UniProt P52209).
T3 sequence (P52209 1-483): T1 sequence (P52209 1-483)
The class given is binding. How it is done: In brief, thermal shift assay of compound-protein interaction was performed in 384-well PCR plates with various compound concentrations and 200 μg/ml protein in a buffer solution (20 mM Tris-HCl, 100 mM NaCl, pH 7.4). SYPRO orange was used as a dye to monitor the fluorescence change at 610 nm. Small molecules were dissolved in DMSO and added to protein solution. Final DMSO concentration of solution is 1%. Dissociation constants (Kds) for protein-ligand interaction were calculated using the method as described.
The fluorescence intensity data were fitted to Eq. (1) to obtain ΔHu, ΔCpu, and Tm by nonlinear regression using the program Prism:
The thermal unfolding parameters for 6PGD and PGAM1 alone were determined from 4 control wells, each containing 0.2 mg/mL protein.

The target in assay [4] is T4, G6PD (H1299 cell lysates or rG6PD) (Homo sapiens, UniProt P11413).
T4 construct: endogenous in cells; host or cells: H1299 cell lysates; also recombinant rG6PD of unstated origin
T4 sequence (P11413 whole entry): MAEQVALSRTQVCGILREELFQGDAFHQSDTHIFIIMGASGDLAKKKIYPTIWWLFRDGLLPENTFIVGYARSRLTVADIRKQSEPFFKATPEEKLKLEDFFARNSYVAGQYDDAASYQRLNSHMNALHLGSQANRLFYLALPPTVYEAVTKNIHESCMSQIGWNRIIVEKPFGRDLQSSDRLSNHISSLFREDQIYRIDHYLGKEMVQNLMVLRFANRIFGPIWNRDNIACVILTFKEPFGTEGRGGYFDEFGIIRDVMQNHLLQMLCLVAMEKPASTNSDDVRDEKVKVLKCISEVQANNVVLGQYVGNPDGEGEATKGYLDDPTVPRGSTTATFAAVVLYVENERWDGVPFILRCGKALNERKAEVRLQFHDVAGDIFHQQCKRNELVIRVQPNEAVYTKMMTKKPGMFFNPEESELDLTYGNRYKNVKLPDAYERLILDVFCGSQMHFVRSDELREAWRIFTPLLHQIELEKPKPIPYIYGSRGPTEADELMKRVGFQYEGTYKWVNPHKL
The assay is described as follows: G6PD enzyme assay. The following applies: increasing concentrations of 3-PG. The class given is biochemical. How it is done: as §1

Assay [5] relates to Y26 phosphorylation of PGAM1. The assay can be described thus: PGAM1 Y26 phosphorylation in human cancer cell lines. The class given is cell-based. The following applies: pertinent human cancer cell lines (KG1a, HEL).
The target in assay [6] is PGAM1 (Homo sapiens, UniProt P18669). The following applies: cited from earlier work.
PGAM1, sequence (P18669 whole entry): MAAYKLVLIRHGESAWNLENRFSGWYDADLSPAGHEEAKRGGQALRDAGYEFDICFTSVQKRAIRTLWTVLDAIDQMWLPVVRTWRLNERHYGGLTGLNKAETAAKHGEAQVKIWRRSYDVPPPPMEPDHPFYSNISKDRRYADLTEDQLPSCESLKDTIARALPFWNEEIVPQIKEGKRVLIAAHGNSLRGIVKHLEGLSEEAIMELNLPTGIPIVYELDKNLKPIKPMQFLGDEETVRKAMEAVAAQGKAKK
In assay [7] the target is T5, purified human PGAM1 proteins (recombinant PGAM1) (Homo sapiens, UniProt P18669).
T5 construct: (His)6; made in house; host or cells: E. coli BL21(DE3)pLysS (pET53 vector)
T5 sequence (P18669 whole entry): as above
The assay can be described thus: In vitro PGAM1 enzyme assay (coupled enolase/PKM1/LDH, NADH oxidation). Format: biochemical. The following applies: for relative PGAM1 inhibitory potency in vitro: purified recombinant PGAM1, comparison among alizarin, alizarin Red S and PGMI-004A; for screening outcome (PGAM1 primary screen, enolase secondary screen): library screen with coupled PGAM1 and enolase assays. How it is done: An in vitro PGAM1 assay was performed as primary screening. PGAM1 enzyme mix was prepared containing 100 mM Tris-HCl, 100 mM KCl, 5 mM MgCl2, 1 mM ADP, 0.2 mM NADH, 5 mg/ml recombinant PGAM1, 0.5 units/ml enolase, 0.5 units/ml recombinant pyruvate kinase M1, and 0.1 units/ml recombinant LDH. 3-PG was added last at the final concentration of 2 mM to initiate the reaction. […] An in vitro enolase assay as secondary screening was also performed. Enolase enzyme mix was prepared containing 100 mM Tris-HCl, 100 mM KCl, 5 mM MgCl2, 1 mM ADP, 0.2 mM NADH, 0.5 units/ml enolase, 0.5 units/ml recombinant pyruvate kinase M1, and 0.1 units/ml recombinant LDH. 2-PG was added last at the final concentration of 2 mM to initiate the reaction. […] Assay was carried out in Tris-HCl buffer (10 mM Tris, pH 7.4, 100 mM NaCl) containing 5% DMSO.
PGAM1 activity was measured by multiple enzymes coupled assay. PGAM1 enzyme mix containing 100 mM Tris-HCl, 100 mM KCl, 5 mM MgCl2, 1 mM ADP, 0.2 mM NADH, 5 mg/ml recombinant PGAM1, 0.5 units/ml enolase, 0.5 units/ml recombinant pyruvate kinase M1, and 0.1 units/ml recombinant LDH was prepared. 3-PG was added last at a final concentration of 2 mM to initiate the reaction.

Assay [8] has as its system human leukemia KG1a cells. The assay is described as follows: Cell proliferation/viability assay, KG1a. Format: cell-based. As to conditions: increasing concentrations (72h). How it is done: For leukemia cell proliferation assay, 10×10^4 cells were seeded in non-tissue culture coated 6-well plate and incubated at 37° C. for indicated times. Cell numbers were counted by trypan blue exclusion under a microscope (×40) at indicated times and the percentage of cell proliferation was determined by comparing PGAM1 knockdown cells to pLKO.1 vector expressing cells. […] Cell viability was determined by counting drug-treated cells compared to DMSO-treated control cells with trypan blue exclusion under a microscope (×40) and by using CellTiter96Aqueous One solution proliferation kit (Promega). For adherent cell proliferation assay such as H1299 and MDA-MB231 cells, 5×10^4 cells were seeded in 6-well plate 24 h before the assay starts and were cultured at 37° C. 24 h after seeding, cells were treated with 5 μM Methyl-2PG and incubated at 37° C. for indicated times. Cell proliferation was determined by the increase in cell number indicated times after the treatment starts compared to that at the treatment starts for each cell line (T=0). Cell numbers were counted by trypan blue exclusion under a microscope (×40). […] Cell viability was determined by counting drug-treated cells compared to DMSO-treated control cells with trypan blue exclusion under a microscope (×40). […] Cell viability was determined by using CellTiter96Aqueous One solution proliferation kit (Promega).

Assay [9] concerns H1299 cells. The assay is described as follows: Cell proliferation assay, H1299. The class given is cell-based, human. As to conditions: H1299 cells. How it is done:
For leukemia cell proliferation assay, 10×10^4 cells were seeded in non-tissue culture coated 6-well plate and incubated at 37° C. for indicated times. Cell numbers were counted by trypan blue exclusion under a microscope (×40) at indicated times and the percentage of cell proliferation was determined by comparing PGAM1 knockdown cells to pLKO.1 vector expressing cells. […] Cell viability was determined by counting drug-treated cells compared to DMSO-treated control cells with trypan blue exclusion under a microscope (×40) and by using CellTiter96Aqueous One solution proliferation kit (Promega). For adherent cell proliferation assay such as H1299 and MDA-MB231 cells, 5×10^4 cells were seeded in 6-well plate 24 h before the assay starts and were cultured at 37° C. 24 h after seeding, cells were treated with 5 μM Methyl-2PG and incubated at 37° C. for indicated times. Cell proliferation was determined by the increase in cell number indicated times after the treatment starts compared to that at the treatment starts for each cell line (T=0). Cell numbers were counted by trypan blue exclusion under a microscope (×40). For adherent cell viability assay with trypan blue exclusion, 5×10^4 cells were seeded in 6-well plate 24 h before the assay starts and were cultured at 37° C. […] Cell viability was determined by counting drug-treated cells compared to DMSO-treated control cells with trypan blue exclusion under a microscope (×40). For MTT cell viability assay of adherent cells, 5×10^3 cells were seeded in 96-well plate 24 h before the assay starts and were cultured at 37° C. […] Cell viability was determined by using CellTiter96Aqueous One solution proliferation kit (Promega).

`O=C(O)[C@@H](CO)OP(=O)(O)O` [2-PG, 2-phosphoglycerate]: the 6PGD enzyme activity entry in assay [1] (2-PG treatment, H1299 cell lysates or r6PGD) is “did not affect 6PGD enzyme activity”. For the same compound, in assay [2] (increasing concentrations of 2-PG), the “enzyme activity of recombinant PHGDH (rPHGDH)” value is listed as “increased enzyme activity of recombinant PHGDH”. Moreover, in [2] (~15 μM 2-PG), the PHGDH activity result is recorded as “did not significantly affect PHGDH activity”. In [2] (~45 μM or ~60 μM 2-PG, H1299 PGAM1 knockdown cell lysates), the PHGDH enzyme activity result is reported as “higher PHGDH enzyme activity”.

For `O=C(O)[C@H](O)COP(=O)(O)O` [3-PG, 3-phosphoglycerate], the “6PGD melting temperature (Tm)” value in assay [3] (increasing concentrations, 100 μM to 25 mM) was “raises 6PGD melting temperature (Tm) in a dose-dependent manner”. In addition, the Kd in assay [3] (read-out: Kd for interaction with 6PGD) is 460 ± 40 µM. Also, the inhibitory constant (Ki) in assay [1] (Dixon plot, read-out: inhibition constant (Ki) for 6PGD) came out at 489 ± 13 µM. Further, the “mode of 6PGD inhibition” value in [1] (Lineweaver-Burk plot, ~250 μM 3-PG, ~35 μM 6-PG) is recorded as “competitive inhibitor”. For the same compound, the 6PGD enzyme activity entry in assay [1] (~60 μM 3-PG (physiological), H1299 cell lysates or recombinant 6PGD) is given as “do not significantly affect 6PGD enzyme activity”; in [1] (~250 μM 3-PG, H1299 cell lysates or recombinant 6PGD) it was “decreased enzyme activity of 6PGD”. Besides, the G6PD activity result in assay [4] was “did not significantly affect G6PD activity”.

With `N#C/C(=C/c1ccc(O)c(O)c1)C(=O)NCc1ccccc1` [AG490], the “Y26 phosphorylation of PGAM1” value in [5] is “decreased Y26 phosphorylation of PGAM1”.

Turning to `C#CCCCC(=O)OC(C)(C)C1CCC2(CO2)C(OC(=O)NC(Cc2c[nH]c3ccccc23)C(=O)OCc2ccccc2)C1` (stereo not shown) [MJE3], the “PGAM1 activity (reported)” value in assay [6] (Evans et al., 2007, 2005) is “specifically inhibits PGAM1 activity exclusively in intact cells”. Further, the “cancer cell proliferation (reported)” value in assay [6] is reported as “attenuates cancer cell proliferation”.

With `CN1CCN(c2ccc3nc(-c4c(N)c5c(F)cccc5[nH]c4=O)[nH]c3c2)CC1` [TKI258], the “Y26 phosphorylation of PGAM1” value in assay [5] is “decreased Y26 phosphorylation of PGAM1”.

In the case of `O=C1c2ccccc2C(=O)c2c1cc(S(=O)(=O)O)c(O)c2O` [alizarin Red S, 3,4-dihydroxy-9,10-dioxo-9,10-dihydroanthracene-2-sulfonic acid], the figures for the “relative PGAM1 inhibitory potency in vitro” value in [7] and in assay [7] (listed as Alizarin Red S) were “more potent PGAM1 inhibitory potential compared to alizarin” and “more potent PGAM1 inhibitor”, respectively.

With `O=C1c2ccccc2C(=O)c2c1ccc(O)c2O` [alizarin, 1,2-Dihydroxyanthraquinone], the “screening outcome (PGAM1 primary screen, enolase secondary screen)” value (“screening outcome” for short) in assay [7] is listed as “identified as PGAM1 inhibitors”. Moreover, the cell proliferation entry in assay [8] and in assay [9] was “decreased proliferation” in each case.

As for `Oc1c(Cl)cc(Cl)c(Cl)c1Cc1c(O)c(Cl)cc(Cl)c1Cl` [hexachlorophene], in [7], the “screening outcome” value is “identified as PGAM1 inhibitors”.

In the case of `O=CC=Cc1ccc(O)cc1` [p-hydroxycinnamaldehyde], the “screening outcome” value in assay [7] is “identified as PGAM1 inhibitors”.
